Assay results as given in patent US20200229435A1, “ANTIMICROBIAL MIXTURE CONTAINING 4-(3-ETHOXY-4-HYDROXYPHENYL)BUTAN-2-ONE AND AN AMMONIUM COMPOUND, AND COSMETIC COMPOSITION CONTAINING SAME” (L'OREAL, priority 2017, published 2020).
One block for each molecule: values may come before it.

Key:
Type in all cases: cell-based
[1] = test system: Pseudomonas aeruginosa ATCC 9027; test: MIC / synergy (FIC index) microplate growth test, optical density at 620 nm, Pseudomonas aeruginosa
Description: (§1) FIC Index=(MICa with B/MICa)+(MICb with A/MICb)
(§2) with: • MICa with B: minimum concentration of product A in the combination A+B which makes it possible to obtain an inhibitory effect • MICb with A: minimum concentration of product B in the combination A+B which makes it possible to obtain the inhibitory effect. • MICa: minimum inhibitory concentration of product A alone. • MICb: minimum inhibitory concentration of product B alone.
(§3) As regards the combinations tested, MICa with b and MICb with a are the respective concentrations of A and of B in the combinations which make it possible to obtain a microbial growth percentage of less than or equal to 25%.
(§4) When the FIC index value is less than or equal to 1, it is considered that the combination of test compounds has a synergistic effect.
The microbial strain Pseudomonas aeruginosa ATCC 9027 and a double-concentration nutritive broth liquid culture medium were used.
(§5) A 96-well microplate and an […] of 32.5° C. are used.
(§6) The incubation time of the microplate is: • from 24 hours to 48 hours aerobically for Aspergillus niger; • from 18 to 24 hours aerobically for Candida albicans and Pseudomonas aeruginosa.
(§7) A 10% (weight/volume) stock solution was prepared by mixing 1 g of compound in 9 ml of aqueous 1% agar solution. Successive dilutions were made with the 1% agar solution. • Tests of compounds A and B alone
(§8) 50 μL of each of the daughter solutions obtained containing compound A or B are added to the microplate wells. 100 μL of Sabouraud liquid nutrient broth seeded with the strain Aspergillus niger and 50 μL of aqueous 1% agar solution are also added thereto. • Tests of compounds A and B as a mixture
(§9) 50 μL of each of the daughter solutions obtained containing compound A and 50 μL of each of the daughter solutions obtained containing compound B are added to the microplate wells. 100 μL of Sabouraud liquid nutrient broth seeded at double concentration with the strain Aspergillus niger are also added thereto.
(§10) A positive microbial growth control was also prepared. The positive microbial growth control corresponds to a mixture of 100 μL of aqueous 1% agar solution with 100 μL of Sabouraud liquid nutrient broth seeded at double concentration with the strain Aspergillus niger in the absence of compounds A and B.
(§11) An absorbance control was performed in parallel on compounds A and B alone. This control corresponds to 100 μL of double concentration sterile Sabouraud liquid nutrient broth+100 μL of double concentration compound A or B.
(§12) The test as described above (tests, absorbance control and growth control) was performed again to test the combination A+B on the strains Candida albicans and Pseudomonas aeruginosa.

[2] = test system: Aspergillus niger ATCC 6275; test: MIC / synergy (FIC index) microplate growth test, optical density at 620 nm, Aspergillus niger
Description: as §1, §2, §3, §4
The microbial strain Aspergillus niger ATCC 6275, and a double-concentration Sabouraud broth liquid culture medium supplemented with polyoxyethylenated (20 OE) sorbitan monopalmitate (Tween 40 from Croda) and Phytagel© BioReagent were used.
as §5, §6, §7, §8, §9, §10, §11
In the two cases (test and control), the inoculum represents the concentration of the strain Aspergillus niger present in the final volume of the wells (200 μL) and is between 2 and 6×10^5 cfu/ml of Aspergillus niger.

[3] = test system: Candida albicans ATCC 10231; test: MIC / synergy (FIC index) microplate growth test, optical density at 620 nm, Candida albicans
Description: as §1, §2, §3, §4
The microbial strain Candida albicans ATCC 10231 and a double-concentration Sabouraud broth liquid culture medium were used.
as §5, §6, §7, §8, §9, §10, §11, §12

[4] = weight %, first concentration giving growth <= 25%

% MIC of A alone [1, 4]: 1% | % MIC of A alone ([2]; Example 1, weight %, first concentration giving growth <= 25%): 0.4% | % MIC of A alone ([2]; Example 2, weight %, first concentration giving growth <= 25%): 0.4% | % MIC of A alone [3, 4]: 0.2%
SMILES: CCOc1cc(CCC(C)=O)ccc1O [A, 4-(3-ethoxy-4-hydroxyphenyl)butan-2-one]
microbial growth percentage ([1]; A 0.0625 weight % alone): 114% | microbial growth percentage ([1]; A 0.125 weight % alone): 59% | microbial growth percentage ([1]; A 0.25 weight % alone): 65% | microbial growth percentage ([1]; A 0.5 weight % alone): 41% | microbial growth percentage ([1]; A 1 weight % alone): 15% | microbial growth percentage ([2]; Example 1, A 0.025 weight % alone): 150% | microbial growth percentage ([2]; Example 1, A 0.05 weight % alone): 113% | microbial growth percentage ([2]; Example 1, A 0.1 weight % alone): 112% | microbial growth percentage ([2]; Example 1, A 0.2 weight % alone): 75% | microbial growth percentage ([2]; Example 1, A 0.4 weight % alone): 5% | microbial growth percentage ([2]; Example 2, A 0.025 weight % alone): 212% | microbial growth percentage ([2]; Example 2, A 0.05 weight % alone): 92% | microbial growth percentage ([2]; Example 2, A 0.1 weight % alone): 68% | microbial growth percentage ([2]; Example 2, A 0.2 weight % alone): 29% | microbial growth percentage ([2]; Example 2, A 0.4 weight % alone): 17% | microbial growth percentage ([3]; A 0.025 weight % alone): 73% | microbial growth percentage ([3]; A 0.05 weight % alone): 73% | microbial growth percentage ([3]; A 0.1 weight % alone): 49% | microbial growth percentage ([3]; A 0.2 weight % alone): 9%

% MIC of B1 alone [1, 4]: 0.0316% | % MIC of B1 alone [2, 4]: 0.79% | % MIC of B1 alone [3, 4]: 0.00395%
SMILES: CCCCCCCCCCCCCCCCCCCCCC[N+](C)(C)C.[Cl-] [B1, behenyltrimethylammonium chloride]
microbial growth percentage ([1]; B1 0.001975 weight % alone): 68% | microbial growth percentage ([1]; B1 0.00395 weight % alone): 93% | microbial growth percentage ([1]; B1 0.0079 weight % alone): 36% | microbial growth percentage ([1]; B1 0.0158 weight % alone): 30% | microbial growth percentage ([1]; B1 0.0316 weight % alone): 1% | microbial growth percentage ([2]; B1 0.049 weight % alone): 186% | microbial growth percentage ([2]; B1 0.1 weight % alone): 155% | microbial growth percentage ([2]; B1 0.2 weight % alone): 78% | microbial growth percentage ([2]; B1 0.4 weight % alone): 34% | microbial growth percentage ([2]; B1 0.79 weight % alone): 8% | microbial growth percentage ([3]; B1 0.002 weight % alone): 50% | microbial growth percentage ([3]; B1 0.00395 weight % alone): 1%
